# Read-outs that look alike come from different tables or passages of the source.
# Experiments:
# [1] = deionised water; for Dissolved Dapagliflozin: 25 ± 2° C.
# Experimental: The effect of cyclodextrins on the aqueous solubility of dapagliflozin was studied in deionised water at 25±2° C. The solubilizing effect was studied by preparing samples having a cyclodextrin concentration in the range of 1 to 15 wt. %.
# The following cyclodextrins were used: • b-cyclodextrin (BCD): CYL-2518/2 (Wacker Chemie GmbH) • (2-hydroxy)propyl-b-cyclodextrin (HPBCD): E0062 (Roquette Frères) • sulfobutylether-b-cyclodextrin (SBEBCD): 47K040508 (CycloLab)
# [2] = Experimental: Literatural examples indicate that the effectiveness of complex formation may be increased upon the addition of hydroxycarboxylic acids, especially citric acid in case the complex forming cyclodextrin or its complex is subject to aggregation. Often this is the case when parent cyclodextrins are applied. […] As a proof of concept, representative isotherm data were determined in the presence of citric acid (added in equimolar ratio with the pharmacon) and compared to the original dissolved concentrations (Table 2).
smiles,measurement,setting,value
"CCOc1ccc(Cc2cc([C@@H]3O[C@H](CO)[C@@H](O)[C@H](O)[C@H]3O)ccc2Cl)cc1 [dapagliflozin, (2S,3R,4R,5S,6R)-2-[4-chloro-3-(4-ethoxybenzyl)phenyl]-6-(hydroxymethyl)-tetrahydro-2H-pyran-3,4,5-triol]",Dissolved Dapagliflozin,[1]; BCD 0.5 wt. %,3.3 mg/mL
same,Dissolved Dapagliflozin,[1]; BCD 1.0 wt. %,4.7 mg/mL
same,Dissolved Dapagliflozin,[1]; BCD 1.5 wt. %,6.3 mg/mL
same,Dissolved Dapagliflozin,[1]; BCD 2.0 wt. %,7.7 mg/mL
same,Dissolved Dapagliflozin,[1]; HPBCD 1.0 wt. %,4.4 mg/mL
same,Dissolved Dapagliflozin,[1]; HPBCD 2.0 wt. %,7.2 mg/mL
same,Dissolved Dapagliflozin,[1]; HPBCD 2.5 wt. %,8.6 mg/mL
same,Dissolved Dapagliflozin,[1]; HPBCD 3.0 wt. %,9.7 mg/mL
same,Dissolved Dapagliflozin,[1]; HPBCD 4.0 wt. %,12.5 mg/mL
same,Dissolved Dapagliflozin,[1]; HPBCD 5.0 wt. %,14.4 mg/mL
same,Dissolved Dapagliflozin,[1]; HPBCD 10.0 wt. %,14.1 mg/mL
same,Dissolved Dapagliflozin,[1]; HPBCD 15.0 wt. %,14.0 mg/mL
same,Dissolved Dapagliflozin,[1]; HPGCD 1.0 wt. %,4.2 mg/mL
same,Dissolved Dapagliflozin,[1]; HPGCD 5.0 wt. %,11.3 mg/mL
same,Dissolved Dapagliflozin,[1]; HPGCD 10.0 wt. %,14.9 mg/mL
same,Dissolved Dapagliflozin,[1]; HPGCD 15.0 wt. %,14.4 mg/mL
same,Dissolved Dapagliflozin,[1]; SBEBCD 1.0 wt. %,3.8 mg/mL
same,Dissolved Dapagliflozin,[1]; SBEBCD 5.0 wt. %,10.7 mg/mL
same,Dissolved Dapagliflozin,[1]; SBEBCD 10.0 wt. %,13.1 mg/mL
same,Dissolved Dapagliflozin,[1]; SBEBCD 15.0 wt. %,12.8 mg/mL
same,Dissolved Dapagliflozin,[1]; no cyclodextrin,1.6 mg/mL
same,effect of the interactions with cyclodextrins on solubility,[1]; cyclodextrin-concentration dependent,significant solubility enhancement
same,Dissolved Dapagliflozin,[2]; HPBCD 1.0% + 28 mg citric acid (equimolar with the drug),4.1 mg/mL
same,Dissolved Dapagliflozin,[2]; HPBCD 2.5% + 28 mg citric acid (equimolar with the drug),8.1 mg/mL
same,Dissolved Dapagliflozin,[2]; HPBCD 5.0% + 28 mg citric acid (equimolar with the drug),14.3 mg/mL

# From US9480755B2, “Pharmaceutical composition comprising dapagliflozin and cyclodextrin” (ratiopharm GmbH, priority 2011, dated 2016)
